For test [1], the target named is Rat recombinant PDE10a (rPDE10a) (Rattus norvegicus (Rat), UniProt Q9QYJ6). As to the kind of experiment: In vitro assay PDE10a (rat recombinant PDE10a, SPA). The format is biochemical. The settings on record: 60 nM cAMP, 60 min at rt, read-out: rPDE10a2 IC50. The protocol:
Rat recombinant PDE10a (rPDE10a) was expressed in Sf9 cells using a recombinant rPDE10a baculovirus construct. Cells were harvested after 48 h of infection and the rPDE10a protein was purified by metal chelate chromatography on Ni-sepharose 6FF. Tested compounds were dissolved and diluted in 100% DMSO to a concentration 100 fold of the final concentration in the assay. Compound dilutions (0.4 μL) were added in 384 well plates to 20 μL of incubation buffer (50 mM Tris pH 7.8, 8.3 mM MgCl2, 1.7 mM EGTA). 10 μL of rPDE10a enzyme in incubation buffer was added and the reaction was started by addition of 10 μL substrate to a final concentration of 60 nM cAMP and 0.008 μCi ^3H-cAMP. The reaction was incubated for 60 min at rt. After incubation, the reaction was stopped with 20 μL of 17.8 mg/mL PDE SPA beads. After sedimentation of the beads during 30 min the radioactivity was measured in a Perkin Elmer Topcount scintillation counter and results were expressed as cpm. For blank values the enzyme was omitted from the reaction and replaced by incubation buffer. Control values were obtained by addition of a final concentration of 1% DMSO instead of compound.

In test [2] the target is Human recombinant PDE10A2 (Homo sapiens (Human), UniProt Q9Y233). As to the kind of experiment: In vitro hPDE10a (human recombinant PDE10A2, scintillation proximity assay). It counts as biochemical. As to conditions: human recombinant PDE10A2, 60 nM cAMP, 60 min at room temperature; read-out: hPDE10a2 IC50. Here is the method: Human recombinant PDE10A2 was expressed in Sf9 cells, using a recombinant baculovirus construct containing the full length sequence containing a 6×His sequence following the start Met to allow metal affinity purification of the recombinant protein. Cells were harvested and the phosphodiesterase protein was purified by metal chelate chromatography on Ni-sepharose 6FF.
Human recombinant PDE10A2, sequence (Q9Y233 267-1055): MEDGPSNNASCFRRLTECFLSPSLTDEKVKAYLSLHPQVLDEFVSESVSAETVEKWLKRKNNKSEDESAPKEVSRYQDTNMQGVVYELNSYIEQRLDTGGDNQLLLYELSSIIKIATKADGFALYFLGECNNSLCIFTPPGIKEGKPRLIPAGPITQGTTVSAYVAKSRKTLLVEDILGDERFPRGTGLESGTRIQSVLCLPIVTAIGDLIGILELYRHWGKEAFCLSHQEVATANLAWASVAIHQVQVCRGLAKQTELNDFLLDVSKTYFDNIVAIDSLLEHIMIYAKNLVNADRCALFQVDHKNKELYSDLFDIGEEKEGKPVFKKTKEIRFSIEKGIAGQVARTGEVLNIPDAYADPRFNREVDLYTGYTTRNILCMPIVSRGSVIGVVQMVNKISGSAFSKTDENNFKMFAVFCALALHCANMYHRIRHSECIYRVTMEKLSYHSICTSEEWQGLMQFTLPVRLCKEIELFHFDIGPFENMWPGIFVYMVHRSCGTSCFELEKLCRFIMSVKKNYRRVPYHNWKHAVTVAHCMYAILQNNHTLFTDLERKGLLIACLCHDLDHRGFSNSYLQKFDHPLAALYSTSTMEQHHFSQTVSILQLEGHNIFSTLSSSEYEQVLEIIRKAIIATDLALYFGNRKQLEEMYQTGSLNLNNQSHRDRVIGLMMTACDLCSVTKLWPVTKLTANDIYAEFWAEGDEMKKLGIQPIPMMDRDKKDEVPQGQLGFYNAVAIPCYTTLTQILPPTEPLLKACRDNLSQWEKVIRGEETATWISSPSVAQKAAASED
The affinity of the compounds of Formula (I) for phophodiesterases (PDE) was measured by a scintillation proximity assay (SPA). PDE Yttrium Silicate SPA beads allow PDE activity to be measured by direct binding of the primary phosphate groups of non-cyclic AMP or GMP to the beads via a complex iron chelation mechanism. The amount of bound tritiated product ([^3H]-AMP) is measured by liquid scintillation counting.
The compounds were dissolved and diluted in 100% DMSO in polystyrene plates to a concentration of 100-fold the final concentration in the assay. Human PDE10A enzyme solution (10 μL) was added to 20 μL, of incubation buffer (50 mM Tris pH 7.8, 8.3 mM MgCl2, 1.7 mM EGTA), 10 μL, substrate solution consisting of a mixture of non-tritiated and tritiated substrate (60 nM cAMP, 0.008 μCi ^3H-cAMP), and 0.4 μL, compound in 100% DMSO in a 384-well plate, and incubated for 60 min at room temperature. After incubation, the reaction was stopped with 20 μL, of stop solution, consisting of PDE SPA beads (17.8 mg beads/mL in 18 mM zinc sulphate). After sedimentation of the beads for 30 min, the radioactivity was measured in a Perkin Elmer Topcount scintillation counter and results were expressed as cpm. To measure the low control, no enzyme was added to the reaction mixture.
Data were calculated as the percentage of inhibition of total activity measured in the absence of test compound (% control).

Structures can show the parent of a compound that is named as a salt.

Rat recombinant PDE10a (rPDE10a), sequence (Q9QYJ6 whole entry): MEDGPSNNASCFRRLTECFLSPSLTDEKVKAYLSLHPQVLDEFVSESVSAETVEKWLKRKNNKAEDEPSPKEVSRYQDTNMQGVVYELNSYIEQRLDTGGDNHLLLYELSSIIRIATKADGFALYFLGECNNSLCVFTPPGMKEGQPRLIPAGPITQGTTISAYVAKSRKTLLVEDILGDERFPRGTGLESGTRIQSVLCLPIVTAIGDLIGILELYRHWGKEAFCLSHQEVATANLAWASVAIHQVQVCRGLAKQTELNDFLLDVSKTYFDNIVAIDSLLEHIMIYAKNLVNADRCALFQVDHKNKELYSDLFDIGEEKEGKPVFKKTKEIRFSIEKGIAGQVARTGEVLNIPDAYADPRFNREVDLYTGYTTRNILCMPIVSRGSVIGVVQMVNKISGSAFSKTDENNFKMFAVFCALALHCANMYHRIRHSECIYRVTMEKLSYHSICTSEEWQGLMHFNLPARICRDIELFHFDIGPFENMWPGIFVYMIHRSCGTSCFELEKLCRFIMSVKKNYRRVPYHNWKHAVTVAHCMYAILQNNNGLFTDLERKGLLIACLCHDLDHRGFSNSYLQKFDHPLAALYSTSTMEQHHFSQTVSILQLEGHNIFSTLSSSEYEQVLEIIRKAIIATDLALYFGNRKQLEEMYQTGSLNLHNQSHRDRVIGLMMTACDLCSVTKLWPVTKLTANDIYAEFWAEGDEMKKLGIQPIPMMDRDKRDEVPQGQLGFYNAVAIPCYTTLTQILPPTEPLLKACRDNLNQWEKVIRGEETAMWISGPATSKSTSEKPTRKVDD

The term IC50 denotes the concentration needed to halve the response being measured. With `O=c1ncn(-c2ccc(-c3cnc(N4CCOCC4)c4nc(/C=C/c5ccc6ccccc6n5)cn34)cc2)[nH]1` [Cpd 56, (E)-1-(4-(8-Morpholino-2-(2-(quinolin-2-yl)vinyl)imidazo[1,2-a]pyrazin-5-yl)phenyl)-1,2-dihydro-1,2,4-triazol-3-one], the IC50 is 15 nM in test [1] and 14 nM in test [2].
For the molecule `O=C1NC(=O)C(c2ccc(-c3cnc(N4CCOCC4)c4nc(/C=C/c5ccc6ccccc6n5)cn34)cc2)N1` (stereo not shown) [Cpd 57, (E)-5-(4-(8-Morpholino-2-(2-(quinolin-2-yl)vinyl)imidazo[1,2-a]pyrazin-5-yl)phenyl)imidazolidine-2,4-dione 2,2,2-trifluoroacetate], the IC50 stood at 48 nM in test [1] and 46 nM in test [2].
Regarding `O=c1[nH]ncn1-c1ccc(-c2cnc(N3CCOCC3)c3nc(/C=C/c4ccc5ccccc5n4)cn23)cc1` [Cpd 58, (E)-4-(4-(8-morpholino-2-(2-(quinolin-2-yl)vinyl)imidazo[1,2-a]pyrazin-5-yl)phenyl)-1H-1,2,4-triazol-5(4H)-one], the figures for the IC50 in test [1] and in test [2] were 132 nM and 91 nM, respectively.
Consider `O=c1[nH]c2ccc(-c3cnc(N4CCOCC4)c4nc(CCc5ccc6ccccc6n5)cn34)cc2o1` [Cpd 64, 6-(8-morpholino-2-(2-(quinolin-2-yl)ethyl)imidazo[1,2-a]pyrazin-5-yl)benzo[d]oxazol-2(3H)-one trifluoroacetic acid salt], for which the values for the IC50 in test [1] and in test [2] were 22 nM and 13 nM, respectively.
Regarding `O=c1[nH]ncn1-c1ccc(-c2cnc(N3CCOCC3)c3nc(CCc4ccc5ccccc5n4)cn23)cc1` [Cpd 65, 4-(4-(8-Morpholino-2-(2-(quinolin-2-yl)ethyl)imidazo[1,2-a]pyrazin-5-yl)phenyl)-1H-1,2,4-triazol-5(4H)-one], the IC50 worked out at 60 nM in test [1] and 38 nM in test [2].
For `O=C(O)CNc1ccc(-c2cnc(N3CCOCC3)c3nc(/C=C/c4ccc5ccccc5n4)cn23)cn1` [Cpd 66, (E)-2-(5-(8-Morpholino-2-(2-(quinolin-2-yl)vinyl)imidazo[1,2-a]pyrazin-5-yl)pyridin-2-ylamino)acetic acid trifluoroacetic acid salt] the same measures were 3 nM and 2 nM.
For `c1ccc2nc(CCc3cn4c(-c5ccc(-c6nnc[nH]6)nc5)cnc(N5CCOCC5)c4n3)ccc2c1` [Cpd 67, 4-(5-(6-(4H-1,2,4-Triazol-3-yl)pyridin-3-yl)-2-(2-(quinolin-2-yl)ethyl)imidazo[1,2-a]pyrazin-8-yl)morpholine], the values for the IC50 in test [1] and in test [2] were 4 nM and 5 nM, respectively.
With `c1ccc2nc(SCc3cn4c(-c5ccc(-c6nnn[nH]6)nc5)cnc(N5CCOCC5)c4n3)ccc2c1` [Cpd 70, 4-(5-(6-(1H-Tetrazol-5-yl)pyridin-3-yl)-2-((quinolin-2-ylthio)methyl)imidazo[1,2-a]pyrazin-8-yl)morpholine], the IC50 in test [1] is 1 nM; in test [2], 2 nM.
Taken in the same sequence, the figures for `O=C(Nc1ccc(-c2cnc(N3CCOCC3)c3nc(/C=C/c4ccc5ccccc5n4)cn23)cc1)N(CCO)CCO` [Cpd 71, (E)-1,1-bis(2-hydroxyethyl)-3-(4-(8-morpholino-2-(2-(quinolin-2-yl)vinyl)imidazo[1,2-a]pyrazin-5-yl)phenyl)urea] were 63 nM and 44 nM.
Taken in the same sequence, the figures for `O=C(NCCO)Nc1ccc(-c2cnc(N3CCOCC3)c3nc(/C=C/c4ccc5ccccc5n4)cn23)cc1` [Cpd 72, (E)-1-(2-Hydroxyethyl)-3-(4-(8-morpholino-2-(2-(quinolin-2-yl)vinyl)imidazo[1,2-a]pyrazin-5-yl)phenyl)urea] were 46 nM and 31 nM.
Turning to `O=S(=O)(NCCO)c1ccc(-c2cnc(N3CCOCC3)c3nc(/C=C/c4ccc5ccccc5n4)cn23)cc1` [Cpd 73, (E)-N-(2-Hydroxyethyl)-4-(8-morpholino-2-(2-(quinolin-2-yl)vinyl)imidazo[1,2-a]pyrazin-5-yl)benzenesulfonamide], the results for the IC50 in test [1] and in test [2] were 40 nM and 26 nM, respectively.
As to `Oc1nc(-c2cnc(N3CCOCC3)c3nc(COc4ccc5ccccc5n4)cn23)no1` [Cpd 75, 3-(8-Morpholino-2-((quinolin-2-yloxy)methyl)imidazo[1,2-a]pyrazin-5-yl)-1,2,4-oxadiazol-5-ol], the IC50 in test [1] and in test [2] was less than 1 nM each time.
In the case of `c1ccc2nc(CCc3cn4c(-c5ccc(-c6nnn[nH]6)nc5)cnc(N5CCOCC5)c4n3)ccc2c1` [Cpd 77, 4-(5-(6-(1H-Tetrazol-5-yl)pyridin-3-yl)-2-(2-(quinolin-2-yl)ethyl)imidazo[1,2-a]pyrazin-8-yl)morpholine], the IC50 in test [1] was less than 30 nM; in test [2], 1 nM.
Consider `CS(=O)(=O)Nc1ccc(-c2cnc(N3CCOCC3)c3nc(CCc4ccc5ccccc5n4)cn23)cn1` [Cpd 78, N-(5-(8-Morpholino-2-(2-(quinolin-2-yl)ethyl)imidazo[1,2-a]pyrazin-5-yl)pyridin-2-yl)methanesulfonamide], for which the IC50 in test [1] is less than 1 nM; in test [2], 1 nM.
For `Oc1nc2ncc(-c3cnc(N4CCOCC4)c4nc(CCc5ccc6ccccc6n5)cn34)cc2[nH]1` [Cpd 79, 6-(8-Morpholino-2-(2-(quinolin-2-yl)ethyl)imidazo[1,2-a]pyrazin-5-yl)-1H-imidazo[4,5-b]pyridin-2-ol] the same measures were 33 nM and 7 nM.
For `C(=C\c1cn2c(-c3ccc(N4CCNCC4)nc3)cnc(C3CCOCC3)c2n1)/c1ccc2ccccc2n1` [Cpd 80, (E)-2-(2-(5-(6-(piperazin-1-yl)pyridin-3-yl)-8-(tetrahydro-2H-pyran-4-yl)imidazo[1,2-a]pyrazin-2-yl)vinyl)quinoline trifluoroacetic acid salt] the same measures were 562 nM and 617 nM.
Taken in the same sequence, the figures for `COc1cc(-c2ncc(-c3ccc(N4CCNCC4)nc3)n3cc(/C=C/c4ccc5ccccc5n4)nc23)ccn1` [Cpd 81] were 91 nM and 245 nM.
For `COc1cc(-c2ncc(-c3ccc(N4CCNCC4)nc3)n3cc(COc4ccc5ccccc5n4)nc23)ccn1` [Cpd 82], the values for the IC50 in test [1] and in test [2] were 245 nM and 282 nM, respectively.
For `NC(=O)c1ccc(-c2cnc(N3CCOCC3)c3nc(COc4ccc5ccccc5n4)cn23)cn1` [Cpd 84, 5-(8-Morpholino-2-((quinolin-2-yloxy)methyl)imidazo[1,2-a]pyrazin-5-yl)picolinamide] the same measures were 8 nM and 16 nM.
For the molecule `CS(=O)(=O)Nc1ccc(-c2cnc(N3CCOCC3)c3nc(COc4ccc5ccccc5n4)cn23)cn1` [Cpd 85, N-(5-(8-Morpholino-2-((quinolin-2-yloxy)methyl)imidazo[1,2-a]pyrazin-5-yl)pyridin-2-yl)methanesulfonamide], the IC50 in test [1] came to 2 nM; in test [2], 1 nM.
For `NS(=O)(=O)c1ccc(-c2cnc(N3CCOCC3)c3nc(COc4ccc5ccccc5n4)cn23)cn1` [Cpd 86, 5-(8-Morpholino-2-((quinolin-2-yloxy)methyl)imidazo[1,2-a]pyrazin-5-yl)pyridine-2-sulfonamide trifluoroacetic acid salt] the same measures were 16 nM and 14 nM.
In the case of `NS(=O)(=O)c1ccc(-c2cnc(N3CCOCC3)c3nc(COc4ccc5ccccc5n4)cn23)cc1` [Cpd 87, 4-(8-Morpholino-2-((quinolin-2-yloxy)methyl)imidazo[1,2-a]pyrazin-5-yl)benzenesulfonamide], the values for the IC50 in test [1] and in test [2] were 2 nM and 1 nM, respectively.
For `CC(=O)NS(=O)(=O)c1ccc(-c2cnc(N3CCOCC3)c3nc(COc4ccc5ccccc5n4)cn23)cc1` [Cpd 88, N-((4-(8-Morpholino-2-((quinolin-2-yloxy)methyl)imidazo[1,2-a]pyrazin-5-yl)phenyl)sulfonyl)acetamide] the same measures were 12 nM and 9 nM.

The record behind these values is patent US9249163B2, “PDE10a inhibitors for the treatment of type II diabetes” (Janssen Pharmaceutica, NV, priority 2013, dated 2016).
